Source: US8455666B1, “Vegetable oil esterified lipoic acid” (The United States of America, as represented by the …, priority 2011, dated 2013)

How the values were obtained:
[1] = Vesicle leakage (calcein-cobalt) assay; settings: 37° C.
Protocol: Lipid Preparation and Formation of Unilamellar Phospholipid Vesicles. Lipid mixtures and vesicles were prepared as described previously (Laszlo et al. 2010. ibid). Lipids were prepared from appropriate amounts of DOPC in chloroform and LDOG-SS- or LDOG-SH (at 1- or 5-mol % of total lipids) in ethanol added to clean amber vials and then gently mixed. Solvents were removed under a stream of argon and then vacuum. The dried lipids were rehydrated in the appropriate buffer and mixed periodically to form multilamellar phospholipid vesicles. The vesicles were subjected to freeze-thaw cycles and then extrusion to form unilamellar vesicles (approx. 125 nm in diameter). Vesicles were covered with argon, protected from light and stored at 4° C. until used. DOPC vesicles incorporating 1- or 5-mol % ALA or DHLA were similarly produced.
Vesicle Leakage (Calcein-Cobalt). Vesicles with and without LDOG were evaluated for membrane integrity using a leakage assay described previously (Evans. Room-temperature ionic liquid cations act as short-chain surfactants and disintegrate a phospholipid bilayer. Colloid. Surface. A 2006, 274:11-17; and Laszlo et al. 2010. ibid). Briefly, the leakage assay was designed such that the low fluorescent signal of the entrapped calcein-cobalt complex increased as vesicles leaked their contents and cobalt was stripped from calcein by external EDTA. Vesicle leakage was monitored with a fluorometer. Samples were continuously stirred in 1-cm path length quartz cuvettes 37° C., with measurements taken for 30 min at 5-s intervals. Experiments were conducted in triplicate. Leakage percentage (L) was determined from the intensity of the fluorescent signal, 100×(Ft−Fo)/(Fmax−Fo), where Ft was the fluorescent signal over time, Fo was the extrapolated initial signal at time zero, and Fmax was the fluorescent signal at the end of the experiment after rupture by addition of Triton X-100 solution. The apparent rate constant k (ms^−1) and maximum extent of vesicle leakage (L∞), prior to vesicle rupture, were obtained by fitting to the equation: Lt=L∞(1−exp(−kt)).

[2] = Lipid peroxidation inhibition capacity assay (AAPH initiator, C11-Bodipy reporter); format: biochemical; settings: for oxidation protection of DOPC vesicles (C11-Bodipy fluorescence): AAPH; for oxidation protection of DOPC vesicles (C11-Bodipy fluorescence) / antioxidant capacity compared with Trolox at the same concentration: in words
Protocol: Lipid Oxidation Inhibition. Lipid oxidation inhibition by LDOG was measured by the lipid peroxidation inhibition capacity assay, which employs AAPH as a free-radical initiator and the lipidic reporter molecule C11-Bodipy (Zhang et al., Lipid peroxidation inhibition capacity assay for antioxidants based on liposomal membranes. Mol. Nutr. Food Res. 2006, 50:714-724). C11-Bodipy fluoresces at 595 nm until it is oxidized, at which point its fluorescence shifts to ˜520 nm (Drummen et al., C11-bodipy581/591, an oxidation-sensitive fluorescent lipid peroxidation probe: (micro)spectroscopic characterization and validation of methodology. Free Radical Biol. Med. 2002, 33:473-490). Conditions for the assay using modified glycerides have been detailed previously (Laszlo et al. 2010. ibid). DOPC and C11-Bodipy were combined in a vial, dried to a film, and then rehydrated in 20 mM Tris-HCl, pH 7.4. When included, ALA, DHLA, LDOG-SS-, or LDOG-SH (at 1- or 5-mol % of total lipids) in ethanol were added prior to formation of vesicles. Unilamellar vesicles were prepared from rehydrated lipids as described above. Samples were diluted to a final concentration of 2.5 mM DOPC (2.4 μM C11-Bodipy) and allowed to equilibrate to 37° C. for 15 min prior to the introduction of AAPH. From the time of AAPH addition (40 mM final concentration), fluorescence intensity (excitation at 540 nm, emission at 595 nm) was measured every minute for 180 min. Experiments were conducted in triplicate at least. The relative fluorescence intensity was calculated by dividing the reading at each minute by the initial fluorescence at the beginning of the experiment (Ft/Fo). Background subtraction was accomplished using the appropriate vesicles without C11-Bodipy.
The water-soluble antioxidant Trolox was used for comparison. Trolox was combined with DOPC and C11-Bodipy, dried, and then rehydrated as described above. A final Trolox concentration range of 10 to 125 μM was employed. The peroxyl radical scavenging capacity of the test antioxidant relative to Trolox (i.e., the relative antioxidation activity) was calculated using the following equation
[formula] where AUCSample is the area under the fluorescence curve (AUC) for vesicles containing antioxidant, AUCTrolox is the area under the curve for vesicles containing 50 μM Trolox (thereby arbitrarily assigned a relative antioxidation activity value of 1.0), AUC0 is the area under the curve for vesicles containing only C11-Bodipy, and molSample is the molar concentration of the antioxidant (Naguib, A fluorometric method for measurement of peroxyl radical scavenging activities of lipophilic antioxidants. Anal. Biochem. 1998, 265:290-298). The AUC was calculated from the average of three different methods, those described by Cao and coworkers (Cao et al., Oxygen-radical absorbance capacity assay for antioxidants. Free Radical Biol. Med. 1993, 14:303-311), Naguib (Naguib, Antioxidant activities of astaxanthin and related carotenoids. J. Agric. Food. Chem. 2000, 48:1150-1154), and Zhang and coworkers (Zhang et al. 2006. ibid).

[3] = earlier study (Laszlo et al. 2010); cited from earlier work
[4] = antioxidant amount 1 mol % in DOPC vesicles
[5] = antioxidant amount 5 mol % in DOPC vesicles
[6] = concentration 25 μM, relative to 50 μM Trolox, DOPC vesicles, 37° C.
[7] = concentration 125 μM, relative to 50 μM Trolox, DOPC vesicles, 37° C.

Compound	leakage rate constant [1, 4]	leakage rate constant [1, 5]	oxidation protection of DOPC vesicles (C11-Bodipy fluorescence) ([2]; 37° C.)	relative antioxidant capacity [2, 6]	relative antioxidant capacity [2, 7]	antioxidant capacity compared with Trolox at the same concentration [2]	antioxidant capacity compared with Trolox [3]	relative antioxidant capacity ([2]; concentration 10 μM, relative to 50 μM Trolox, DOPC vesicles, 37° C.)	relative antioxidant capacity ([2]; concentration 50 μM, reference arbitrarily assigned 1.0)
dihydrolipoyl dioleoylglycerol [LDOG—SH]	4.90 ± 0.90 * ms^−1 · 10^3	1.88 ± 0.01 ms^−1 · 10^3	markedly extended the probe's fluorescent period	2.46 ± 0.10	1.21 ± 0.04	double			
feruloyl dioleoylglycerol							slightly less		
O=C(O)CCCCC1CCSS1 (stereo not drawn) [ALA, α-Lipoic acid]	5.19 ± 1.32 * ms^−1 · 10^3	3.98 ± 1.69 ms^−1 · 10^3		0.61 ± 0.26	0.29 ± 0.05				
O=C(O)CCCC[C@@H](S)CCS (racemic) [DHLA, dihydrolipoic acid]	1.43 ± 1.25 ms^−1 · 10^3	0.48 ± 0.05 * ms^−1 · 10^3		1.95 ± 0.03	1.12 ± 0.02	double			
Cc1c(C)c2c(c(C)c1O)CCC(C)(C(=O)O)O2 (stereo not shown) [Trolox]				0.80 ± 0.09	0.80 ± 0.08			0.98 ± 0.28	1.00
lipoyl dioleoylglycerol [LDOG—SS—]	0.43 ± 0.12 * ms^−1 · 10^3	0.31 ± 0.06 * ms^−1 · 10^3	afforded little oxidation protection	0.09 ± 0.01	0.02 ± 0.002				
